Test results as given in PMC10541456, “A phase I, single‐center, open‐label study to investigate the absorption, distribution, metabolism and excretion of encorafenib following a single oral dose of 100 mg [ ^14C] encorafenib in healthy male subjects” (Pharmacology Research & Perspectives, 2023).

Experiments:
[1] = Metabolite profiles in plasma (UPLC, radioactivity detection, MS); format: in vivo, human; conditions: for Mean (range) Circulating Radioactivity in Plasma Based on AUC0-24: 100 mg oral [14C] encorafenib; for Mean (range) Circulating Radioactivity in Plasma Based on AUC0-24 (%): M12.8 value is sum of M12.8 and M13.2
Description: To the thawed plasma samples (1.5 mL plasma/ time points) two volumes of ice‐cold acetonitrile:ethanol:acetic acid (90:10:0.1, v/v) were added, followed by vortex mixing (10 min) and sonication (10 min). After centrifugation, the supernatants (4.2 mL) were evaporated to near dryness under a gentle stream of nitrogen on a TurboVap LV (Zymark Corp.). The residues were reconstituted in 80 μL of methanol:water:acetic acid (50:50:0.1, v/v) and 45 μL were injected into the ultra‐performance liquid chromatography (UPLC) system with off‐line radioactivity detection.
Characterization and quantification of the metabolites of encorafenib in select human plasma and excreta samples were performed by the Department of DMPK (Drug Metabolism and Pharmacokinetics) at the Novartis Institutes for Biomedical Research (East Hanover, NJ, USA) using liquid chromatography (LC) coupled to radioactivity detectors and mass spectrometers (MS).
The analytical system consisted of a Waters ACQUITY UPLC system (Waters), equipped with a Phenomenex Luna PFP column (3 μm, 4.6 × 150 mm) (Phenomenex) and a guard column of the same phase, both maintained at a temperature of 30°C. The mobile phases consisted of 10 mM ammonium acetate containing 0.1% formic acid (v/v) (solvent A) and CH3CN (solvent B). The total run time was 80 min. A linear gradient elution program was used with a flow rate of 1 mL/min as described in Table 1.
The UPLC effluent was split 4:1, with […] of the total flow introduced to the mass spectrometer for mass spectral analysis and the remaining flow used for radioactivity detection.
For off‐line radioactivity detection, the eluant was collected into 96‐well Lumaplate (Packard Instrument Co) microplates using a Collect Pal fraction collector (Leap Technologies) with a collection time of 10 seconds per well. The LumaPlates were sealed after drying and counted for 10–50 min per well on a Packard Topcount microplate scintillation counter. The structural characterization of metabolites was carried out using the above UPLC profiling method coupled to a two‐channel Z‐spray (LockSprayTM) time‐of‐flight mass spectrometer (Synapt MS). Leucine enkephalin was used as the mass reference standard for exact mass measurements and was delivered via the second spray channel at a flow rate of 5 μL/minute. The mass spectrometer was operated at a resolution of ~10 000 m/ΔmFWHM with spectra being collected from 100 to 1000 amu. The ionization technique employed was positive electrospray. The sprayer voltage was kept at 3100 V and the sampling cone voltage was kept at a potential of 20 V. For the time‐of‐flight MS/MS experiments, trap energies of 25 to 45 eV and transfer energy of 15 eV were used with argon as the collision gas.
All radioactivity data were transferred to Laura software (version 4.2.2.24, Lab Logic Ltd, UK) to generate and integrate radio‐chromatograms. Radioactive peaks for quantitative analysis were manually selected from the plots. The radioactivity in the region encompassing the beginning and end of the peak was summed. All further calculations were based on radioactivity.
The percent of radioactivity (%RA) in a particular peak, Z, was calculated as follows in Equation (1): (1) %RAinZ=DPMin PeakZ/totalDPMinallintegrated peaksx100
The concentration or amount of each component was calculated as % RA (expressed as a fraction) multiplied by the total concentration of radioactivity in plasma, or the percent of dose in the excreta.

[2] = test system: A375 (BRAF V600E) melanoma cell proliferation; set-up: method as in data on file; conditions: fraction of encorafenib potency; ref data on file; cited from earlier work
[3] = set-up: method as in data on file; conditions: ref data on file; cited from earlier work

SMILES	Mean (range) Circulating Radioactivity in Plasma Based on AUC0-24 [1]	Mean (range) Circulating Radioactivity in Plasma Based on AUC0-24 (%) [1]	Potency relative to encorafenib against A375 cell proliferation [2]	In vitro safety pharmacology result [3]
CC(C)n1cc(-c2ccnc(N)n2)c(-c2cc(Cl)cc(NS(C)(=O)=O)c2F)n1 [M42.5A]	2430 (1740–3320) ngEq/mL*h	15.5 (13.4–17.4) %	approximately 1/30	no significant safety signal
CC(O)CNc1nccc(-c2cn(C(C)C)nc2-c2cc(Cl)cc(NS(C)(=O)=O)c2F)n1 (stereo not drawn) [M44]	806 (525–1250) ngEq/mL*h	5.09 (4.02–6.36) %		
